What was measured:
human ADAMTS-5 = human ADAMTS-5 (Homo sapiens (Human), UniProt Q9UNA0); conditions: read-out: hADAMTS-5 potency IC50
Procedure: Finally, the fluorescence is read on the Envision (Perkin Elmer) after an incubation of 90 min at 37° C.

human TACE = human TACE (Homo sapiens (Human), UniProt P78536); conditions: read-out: TACE potency IC50
human MMP13 = human MMP13 (Homo sapiens (Human), UniProt P45452); conditions: read-out: hMMP-13 potency IC50
Procedure: Human MMP13 is preactivated by incubated the enzyme in the same buffer complemented with 1 mM freshly prepared p-Aminophenylmercuric acetate (AMPA) for 1 hour at 37° C.

human TACE, sequence (P78536 whole entry, looked up, change not shown): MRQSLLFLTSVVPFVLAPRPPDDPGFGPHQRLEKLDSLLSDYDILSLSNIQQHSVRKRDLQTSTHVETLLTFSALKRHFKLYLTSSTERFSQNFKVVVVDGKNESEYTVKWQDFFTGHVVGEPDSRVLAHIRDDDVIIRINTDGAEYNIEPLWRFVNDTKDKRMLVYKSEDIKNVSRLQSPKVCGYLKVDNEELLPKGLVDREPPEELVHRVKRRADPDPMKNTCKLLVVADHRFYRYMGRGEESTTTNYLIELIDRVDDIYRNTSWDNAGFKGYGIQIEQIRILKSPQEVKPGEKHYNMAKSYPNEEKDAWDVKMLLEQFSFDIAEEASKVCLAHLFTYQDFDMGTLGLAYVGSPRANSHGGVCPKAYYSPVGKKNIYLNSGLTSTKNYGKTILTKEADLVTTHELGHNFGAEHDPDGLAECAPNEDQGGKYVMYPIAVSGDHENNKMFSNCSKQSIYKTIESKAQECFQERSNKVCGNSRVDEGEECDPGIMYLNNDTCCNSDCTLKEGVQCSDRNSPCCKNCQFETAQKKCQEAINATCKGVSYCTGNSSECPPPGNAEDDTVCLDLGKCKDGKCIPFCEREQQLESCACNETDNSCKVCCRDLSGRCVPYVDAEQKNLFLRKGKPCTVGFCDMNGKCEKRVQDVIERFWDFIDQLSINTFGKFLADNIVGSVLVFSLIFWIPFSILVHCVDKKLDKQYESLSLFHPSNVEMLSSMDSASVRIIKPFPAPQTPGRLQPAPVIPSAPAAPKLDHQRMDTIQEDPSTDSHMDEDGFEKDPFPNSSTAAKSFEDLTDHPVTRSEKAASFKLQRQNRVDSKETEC
human ADAMTS-5, sequence (Q9UNA0 262-930): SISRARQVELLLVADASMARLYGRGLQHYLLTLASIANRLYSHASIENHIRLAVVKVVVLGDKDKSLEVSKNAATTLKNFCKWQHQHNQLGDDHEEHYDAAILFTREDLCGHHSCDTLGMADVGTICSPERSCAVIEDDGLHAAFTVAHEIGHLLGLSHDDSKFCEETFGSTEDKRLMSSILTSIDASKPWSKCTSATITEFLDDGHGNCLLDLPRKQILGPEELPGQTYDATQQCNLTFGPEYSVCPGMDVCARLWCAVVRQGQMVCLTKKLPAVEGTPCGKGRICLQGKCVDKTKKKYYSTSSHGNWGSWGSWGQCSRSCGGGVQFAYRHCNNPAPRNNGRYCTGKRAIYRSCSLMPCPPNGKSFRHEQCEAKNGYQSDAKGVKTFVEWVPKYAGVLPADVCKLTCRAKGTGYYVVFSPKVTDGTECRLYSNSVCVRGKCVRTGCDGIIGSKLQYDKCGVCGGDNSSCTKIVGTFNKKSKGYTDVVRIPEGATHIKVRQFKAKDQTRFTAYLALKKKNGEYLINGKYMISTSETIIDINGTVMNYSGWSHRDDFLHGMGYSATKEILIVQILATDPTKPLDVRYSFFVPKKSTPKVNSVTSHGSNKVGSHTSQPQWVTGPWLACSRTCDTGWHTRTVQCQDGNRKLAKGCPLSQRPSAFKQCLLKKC

SMILES | IC50 (human ADAMTS-5) [nM] | IC50 (human TACE) [nM] | IC50 (human MMP13) [nM]
Cc1c(Cl)cc(Cl)cc1N1CCN(C(=O)C(C)CC2(C)NC(=O)NC2=O)C[C@@H]1C (stereo partly drawn) [compound 423, 5-(3-((S)-4-(3,5-dichloro-2-methylphenyl)-3-methylpiperazin-1-yl)-2-methyl-3-oxopropyl)-5-methylimidazolidine-2,4-dione] | 58 | 1470 | > 20000
Cc1ccc(Cl)cc1N1CCN(C(=O)CCC2(CN(C)C)NC(=O)NC2=O)CC1 (stereo not drawn) [compound 120, 5-[3-[4-(5-chloro-2-methyl-phenyl)piperazin-1-yl]-3-oxo-propyl]-5-(dimethylaminomethyl)imidazolidine-2,4-dione] | – | > 4000 | > 20000
C[C@H]1CN(C(=O)CCC2(C3CC3)NC(=O)NC2=O)CCN1c1ccc(Cl)c(Cl)c1 (stereo partly drawn) [compound 408, 5-cyclopropyl-5-(3-((S)-4-(3,4-dichlorophenyl)-3-methylpiperazin-1-yl)-3-oxopropyl)imidazolidine-2,4-dione] | 19 | > 4000 | > 4000
CC(CC1(C)NC(=O)NC1=O)C(=O)N1CCN(c2cc(Cl)cc(Cl)c2)CC1 (stereo not drawn) [compound 410, 5-(3-(4-(3,5-dichlorophenyl)piperazin-1-yl)-2-methyl-3-oxopropyl)-5-methylimidazolidine-2,4-dione] | 22 | 170 | > 4000
O=C1NC(=O)C(CCC(=O)N2CCN(c3cc(Cl)cc(Cl)c3)CC2)(c2ccccn2)N1 (stereo not drawn) [compound 407, 5-(3-(4-(3,5-dichlorophenyl)piperazin-1-yl)-3-oxopropyl)-5-(pyridin-2-yl)imidazolidine-2,4-dione] | – | 479 | > 20000
CC1(CC(CO)C(=O)N2CCN(c3cc(Cl)cc(Cl)c3)CC2)NC(=O)NC1=O (stereo not drawn) [compound 220, 5-[3-[4-(3,5-dichlorophenyl)piperazin-1-yl]-2-(hydroxymethyl)-3-oxo-propyl]-5-methyl-imidazolidine-2,4-dione] | 18 | 245 | > 4000
CC1(CC(CO)C(=O)N2CCN(c3cc(Cl)cc(Cl)c3)CC2)NC(=O)NC1=O (stereo not drawn) [compound 425, 5-(3-(4-(3,5-dichlorophenyl)piperazin-1-yl)-2-(hydroxymethyl)-3-oxopropyl)-5-methylimidazolidine-2,4-dione] | 18 | 245 | > 4000
CC(CC1(C2CC2)NC(=O)NC1=O)C(=O)N1CCN(c2ccc(Cl)cc2)[C@@H](C)C1 (stereo partly drawn) [compound 412, 5-(3-((S)-4-(4-chlorophenyl)-3-methylpiperazin-1-yl)-2-methyl-3-oxopropyl)-5-cyclopropylimidazolidine-2,4-dione] | 13 | > 20000 | 433
CC(CC1(C2CC2)NC(=O)NC1=O)C(=O)N1CCN(c2ccc(F)c(Cl)c2)[C@@H](C)C1 (stereo partly drawn) [compound 411, 5-(3-((S)-4-(3-chloro-4-fluorophenyl)-3-methylpiperazin-1-yl)-2-methyl-3-oxopropyl)-5-cyclopropylimidazolidine-2,4-dione] | 11 | > 4000 | 865
C[C@H]1CN(C(=O)CCC2(C)NC(=O)NC2=O)CCN1c1ccc(F)c(F)c1 (stereo partly drawn) [compound 165, 5-[3-[(3S)-4-(3,4-difluorophenyl)-3-methyl-piperazin-1-yl]-3-oxo-propyl]-5-methyl-imidazolidine-2,4-dione] | 207 | > 20000 | > 20000
COC(CC1(C)NC(=O)NC1=O)C(=O)N1CCN(c2cc(Cl)cc(Cl)c2)CC1 (stereo not drawn) [compound 439, 5-(3-(4-(3,5-dichlorophenyl)piperazin-1-yl)-2-methoxy-3-oxopropyl)-5-methylimidazolidine-2,4-dione] | 43 | 787 | > 4000
COCC1(CC(C)C(=O)N2CCN(c3cccc(Cl)c3C)CC2)NC(=O)NC1=O (stereo not drawn) [compound 433, 5-(3-(4-(3-chloro-2-methylphenyl)piperazin-1-yl)-2-methyl-3-oxopropyl)-5-(methoxymethyl)imidazolidine-2,4-dione] | 21 | 1250 | > 20000
COCC1(CC(C)C(=O)N2CCN(c3cc(Cl)cc(Cl)c3C)[C@@H](C)C2)NC(=O)NC1=O (stereo partly drawn) [compound 430, 5-(3-((S)-4-(3,5-dichloro-2-methylphenyl)-3-methylpiperazin-1-yl)-2-methyl-3-oxopropyl)-5-(methoxymethyl)imidazolidine-2,4-dione] | – | – | > 20000
COCC(CC1(C)NC(=O)NC1=O)C(=O)N1CCN(c2cc(Cl)cc(Cl)c2)CC1 (stereo not drawn) [compound 436, 5-(3-(4-(3,5-dichlorophenyl)piperazin-1-yl)-2-(methoxymethyl)-3-oxopropyl)-5-methylimidazolidine-2,4-dione] | 22 | 368 | > 4000
CC(CC1(C)NC(=O)NC1=O)C(=O)N1CCN(c2ccc(F)c(Cl)c2)[C@@H](C)C1 (stereo partly drawn) [compound 422, 5-(3-((S)-4-(3-chloro-4-fluorophenyl)-3-methylpiperazin-1-yl)-2-methyl-3-oxopropyl)-5-methylimidazolidine-2,4-dione] | 21 | > 4000 | 2330
CC(C)C(CC1(C)NC(=O)NC1=O)C(=O)N1CCN(c2cc(Cl)cc(Cl)c2)CC1 (stereo not drawn) [compound 438, 5-(2-(4-(3,5-dichlorophenyl)piperazine-1-carbonyl)-3-methylbutyl)-5-methylimidazolidine-2,4-dione] | 56 | 1280 | 1850
CC1(CC(COCc2ccccc2)C(=O)N2CCN(c3cc(Cl)cc(Cl)c3)CC2)NC(=O)NC1=O (stereo not drawn) [compound 424, 5-(2-(benzyloxymethyl)-3-(4-(3,5-dichlorophenyl)piperazin-1-yl)-3-oxopropyl)-5-methylimidazolidine-2,4-dione] | 53 | > 10800 | > 20000
CC(CC1(C2CC2)NC(=O)NC1=O)C(=O)N1CCN(c2cc(F)cc(Cl)c2)[C@@H](C)C1 (stereo partly drawn) [compound 413, 5-(3-((S)-4-(3-chloro-5-fluorophenyl)-3-methylpiperazin-1-yl)-2-methyl-3-oxopropyl)-5-cyclopropylimidazolidine-2,4-dione] | 11 | > 4000 | 952
COCC1(CC(C)C(=O)N2CCN(c3cc(F)cc(F)c3)[C@@H](C)C2)NC(=O)NC1=O (stereo partly drawn) [compound 225, 5-[3-[(3S)-4-(3,5-difluorophenyl)-3-methyl-piperazin-1-yl]-2-methyl-3-oxo-propyl]-5-(methoxymethyl)imidazolidine-2,4-dione] | 28 | > 20000 | 3940
CN(C)CC1(CCC(=O)N2CCN(c3cccc(Cl)c3)CC2)NC(=O)NC1=O (stereo not drawn) [compound 118, 5-[3-[4-(3-chlorophenyl)piperazin-1-yl]-3-oxo-propyl]-5-(dimethylaminomethyl)imidazolidine-2,4-dione] | – | > 4000 | > 20000
CC(CC1(C2CC2)NC(=O)NC1=O)C(=O)N1CCN(c2cc(Cl)cc(Cl)c2)CC1 (stereo not drawn) [compound 409, 5-cyclopropyl-5-(3-(4-(3,5-dichlorophenyl)piperazin-1-yl)-2-methyl-3-oxopropyl)imidazolidine-2,4-dione] | 17 | 311 | 2740
CC1(CCC(=O)N2CCN(c3cc(F)cc(F)c3)CC2)NC(=O)NC1=O (stereo not drawn) [compound 140, 5-[3-[4-(3,5-difluorophenyl)piperazin-1-yl]-3-oxo-propyl]-5-methyl-imidazolidine-2,4-dione] | – | > 20000 | > 4000
CC(CC1(c2ccccn2)NC(=O)NC1=O)C(=O)N1CCN(c2cc(Cl)cc(Cl)c2)CC1 (stereo not drawn) [compound 434, 5-(3-(4-(3,5-dichlorophenyl)piperazin-1-yl)-2-methyl-3-oxopropyl)-5-(pyridin-2-yl)imidazolidine-2,4-dione] | 20 | 106 | 766
CC(CC1(C)NC(=O)NC1=O)C(=O)N1CCN(c2cc(F)cc(Cl)c2)[C@@H](C)C1 (stereo partly drawn) [compound 418, 5-(3-((S)-4-(3-chloro-5-fluorophenyl)-3-methylpiperazin-1-yl)-2-methyl-3-oxopropyl)-5-methylimidazolidine-2,4-dione] | 33 | > 4000 | > 4000
CC1CN(C(=O)CCC2(c3cccnc3)NC(=O)NC2=O)CCN1c1cc(Cl)cc(Cl)c1 (stereo not drawn) [compound 127, 5-[3-[4-(3,5-dichlorophenyl)-3-methyl-piperazin-1-yl]-3-oxo-propyl]-5-(3-pyridyl)imidazolidine-2,4-dione] | – | > 4000 | > 20000
C[C@H]1CN(C(=O)CC[C@@]2(C)NC(=O)NC2=O)CCN1c1ccc(Cl)c(Cl)c1 [compound 414, (R)-5-(3-((S)-4-(3,4-dichlorophenyl)-3-methylpiperazin-1-yl)-3-oxopropyl)-5-methylimidazolidine-2,4-dione] | 40 | > 4000 | > 4000
C[C@H]1CN(C(=O)CCC2(C)NC(=O)NC2=O)CCN1c1ccc(F)c(Cl)c1 (stereo partly drawn) [compound 166, 5-[3-[(3S)-4-(3-chloro-4-fluoro-phenyl)-3-methyl-piperazin-1-yl]-3-oxo-propyl]-5-methyl-imidazolidine-2,4-dione] | 264 | > 20000 | > 20000
CCC1(CCC(=O)N2CCN(c3cccc(Cl)c3)CC2)NC(=O)NC1=O (stereo not drawn) [compound 122, 5-[3-[4-(3-chlorophenyl)piperazin-1-yl]-3-oxo-propyl]-5-ethyl-imidazolidine-2,4-dione] | – | > 4000 | > 20000
CN(C)Cc1ccc(C2(CCC(=O)N3CCN(c4cccc(Cl)c4)CC3)NC(=O)NC2=O)cc1 (stereo not drawn) [compound 83, 5-[3-[4-(3-chlorophenyl)piperazin-1-yl]-3-oxo-propyl]-5-[4-(dimethylaminomethyl)phenyl]imidazolidine-2,4-dione] | – | 2490 | > 4000
